Measurements: patent publication US11999718B2, “Pyrazole derivatives” (Aptabio Therapeutics Inc., priority 2021, dated 2024)

How the values were obtained:
HFF-1 cells = assay: Collagen gel contraction induced by TGF-β1 in HFF-1 cells; format: cell-based, human; settings: HFF-1 cells in collagen gel, TGF-β1 10 ng/ml, 72 hours, FIG. 7
Text: In order to confirm the effect of the compounds of Synthetic examples on differentiation of fibroblasts into myofibroblasts, the inhibitory effect of the compounds of Synthetic examples on the phenomenon of contraction of gel induced by interaction of human foreskin fibroblasts (HFF-1, ATCC) and collagen was observed.
The mixed solution of the HFF-1 cells and collagen (bovine type I collagen) prepared at a concentration of 3×10^6 cells/ml was aliquoted in a 24 well plate, respectively, and then cultured under the condition of 5% CO2, 37° C. for 1 hour to induce gel polymerization. Then, after suspending the gel attached on the plate from the plate using a spoon, a medium comprising TGF-β1 and Synthetic example compounds was added to each well. After culturing for 72 hours, the Synthetic example compounds were treated by 10, 20, 30, 40, 60 and 80 μM to measure the size of the gel, and thereby, the degree of contraction of the gel by drug treatment was confirmed.

N27 cells = assay: ROS production induced by alpha-synuclein preformed fibril (PFF) in N27 cells; format: cell-based, rat; settings: 0.001 μM compound, 24 hours, CellROX-Deep Red, FIG. 2
Protocol: In order to confirm the effect of the compounds of Synthetic examples on ROS production from dopaminergic neural cells, ROS production was induced by alpha-synuclein preformed fibril (PFF) stimulation on N27 (rat dopaminergic neural cell, Sigma) cells and under this condition, the inhibitory effect of ROS production of the compounds of Synthetic examples was observed.
The N27 cells were cultured in RPMI medium containing 10% FBS, 1 μM angiotensin II, and the prepared cells were aliquoted at a concentration of 4×10^3 cells/well on a 6-well plate. The ROS production stimulus, PFF (preformed fibril) and the compounds of Synthetic examples were treated to the cells. After treating the compounds of Synthetic examples for 24 hours, fluorescence of each well was measured using CellROX-Deep Red reagent, thereby confirming the degree of ROS production.

[1] = tested on: HL-60 cells differentiated into neutrophil cells; assay: ROS production induced by PMA in HL-60 cells differentiated into neutrophil cells; format: cell-based; settings: Homo sapiens, 0.5 h; differentiated HL-60 cells, compounds 0.5 uM (0.5 mM in the source) for 30 minutes, 200 nM PMA, L-012 luminescence
Text: (§1) In order to confirm the effect of the compounds of Synthetic examples on ROS production from fibroblasts and specific substrate cells, ROS production was induced by stimulation of PMA (phorbol 12-myristate 13-acetate), TGF-β1, palmitate or high concentration-glucose, or the like, in HL-60 cells differentiated into neutrophil cells by DMSO treatment, NHLF (normal human lung fibroblast, Lonza), LX-2 (human hepatic stellate cells, Sigma), ARPE19 (human retinal pigment epithelial cell, ATCC), and KEL-FIB (Keloid fibroblast, ATCC) cells, and under this condition, the inhibitory effect of ROS production of the compounds of Synthetic Examples was observed.
HL-60 cells (human leukemia cells, ATCC) were suspended in a medium containing 1.25% DMSO (RPMI+10% FBS) and cultured under the condition of 5% CO2, 37° C. for 6 days, thereby inducing differentiation into neutrophil cells. […] Then, to each well comprising the cells and drug, 200 nM PMA was treated to induce ROS production, and such ROS production was measured by observing the luminescence level of each well using 100 μM L-012.

NHLF cells = assay: ROS production induced by PMA in NHLF cells; format: cell-based, human; settings: FIG. 1
Text: as §1
(§2) The NHLF (normal human lung fibroblast, Lonza), LX-2 (human hepatic stellate cells, Sigma), ARPE19 (human retinal pigment epithelial cell, ATCC), KEL-FIB (keloid fibroblast, ATCC) cells were suspended in a culture medium containing 10% FBS and aliquoted on a 96 well plate and then cultured under the condition of 5% CO2, 37° C. for 24 hours. After pre-treating the compounds of Synthetic examples at a concentration of 10, 20, 30, 40, 60 and 80 μM for 30 minutes to 1 hour, the ROS stimulus was treated to each well containing the cells and drug. After additional culturing for 48 hours, the ROS production level was confirmed using L-012 or DCF-DA.

LX-2 cells = assay: ROS production induced by PMA in LX-2 cells; format: cell-based, human; settings: FIG. 1
Text: as §1, §2

αSMA = assay: Expression of αSMA induced by TGF-β1 (immunocytochemistry); format: cell-based, human; settings: TGF-β1 10 ng/ml, 10 μM compound, FIG. 4
Text: In order to confirm whether the compounds of Synthetic examples of the present invention affect differentiation of fibroblasts into myofibroblasts, the inhibitory effect of the compounds of Synthetic examples on increase in expression of αSMA (biomarker for confirming differentiation into myofibroblasts) induced by TGF-β1 on HFF-1 (human foreskin fibroblast, ATCC), NHLF (normal human lung fibroblast, Lonza), LX-2 (human hepatic stellate cells, Sigma), ARPE19 (human retinal pigment epithelial cell, ATCC), and KEL-FIB (Keloid fibroblast, ATCC) cells was to be observed.
Each cell was suspended in a DMEM medium containing 10% FBS and aliquoted at a concentration of 1×10^4 to 1.5×10^5 cells/well in a 4-well chamber slide (Nunc) and the compounds of Synthetic examples and TGF-β1 (both TGF β1 and TGF-β have the same meaning) were treated to prepare cells to be used for confirming αSMA expression. The confirmation of αSMA expression in the prepared cells was performed by immunocytochemistry as follows. For the cells, fixation with 4% paraformaldehyde for 10 minutes and permeabilization using 0.1% Triton x-100 were performed, and then processes of treating the primary antibody (anti-αSMA Ab, 1:200, at 4° C. for 16 hours) and secondary antibody (Alexa-594 conjugated Ab, 1:800, at a room temperature for 1 hour) against αSMA were progressed in order, and then the expression level of αSMA was observed using a fluorescence microscope.
FIG. 3 observes the effect of treating various compounds of Synthetic examples by 10, 20 and 40 μM, after inducing αSMA expression by treatment of TGF-β1(10 ng/ml) into HFF cells.

IL-8 = assay: Expression of IL-8 in pancreatic cancer associated fibroblasts (ELISA); format: cell-based, human; settings: P.CAF cells, 48 hours treatment, FIG. 6
Protocol: (§3) In order to confirm the effect of the compounds of Synthetic examples of the present invention on inflammation reaction in cancer associated fibroblasts, whether the expression of IL6 and IL8 was inhibited by the compounds of Synthetic examples in pancreatic cancer associated fibroblasts (P.CAF) was observed.
(§4) After inoculating 1.5×10^5 cells in a 6 well plate and then culturing in P.CAF complete media for 48 hours, the compounds of Synthetic examples were treated by 10, 20, 30, 40, 60 and 80 μM for 48 hours according to each condition, and then the expression of IL-6 and IL-8 was confirmed by performing ELISA with Quantkine ELISA kit (R&D systems) as follows.
(§5) 100 μl of the culture solution in which the compounds of Synthetic examples were treated for 48 hours was added to the microplate strip for analysis including a 100 μl assay diluent and left at a room temperature for 2 hours and then the contents were removed, and then it was washed with 400 μl wash buffer 4 times. 200 μl of a human IL-6 or IL-8 conjugate was added and left at a room temperature for 2 hours and then the contents were removed, and then it was washed with 400 μl wash buffer 4 times. 200 μl of substrate solution was added and left at a room temperature for 20 minutes and then 50 μl of stop solution was added, and the absorbance at a wavelength of 450 nm was measured within 30 minutes to confirm the expression level of IL-6 and IL-8.

IL-6 = assay: Expression of IL-6 in pancreatic cancer associated fibroblasts (ELISA); format: cell-based, human; settings: P.CAF cells, 48 hours treatment, FIG. 5
Protocol: as §3, §4, §5

IL-1β = assay: Expression of IL-1β induced by LPS in human-derived fibroblasts (RT-PCR); format: cell-based; settings: LX2, NHLF, ARPE19 and KEL-Fib cells, LPS 1 μg/ml 6 hours, 10 μM compound, FIG. 8
Protocol: After inoculating 2×10^5 cells in a 6 well plate and then culturing for 24 hours, they were further cultured in a serum-free culture solution for 16 hours and then the Synthetic example 1 Compound was pre-treated for 20 minutes according to each condition and inflammation reaction was induced with LPS (1 μg/ml) for 6 hours. The expression of IL-1β was confirmed using RT-PCR. Total RNA was separated from the cells using RNeasy mini kit (Qiagen), and for the separated RNA 2 ug, cDNA was synthesized using PrimeScript™ II 1st strand cDNA synthesis kit (TaKaRa) and then PCR was performed with AccuPower® PCR PreMix (Bioneer) to amplify genes. The nucleotide sequences for target primers are as follows. IL-1β (forward: 5′-[…]-3′(SEQ ID NO: 1), reverse: 5′-[…]-3′(SEQ ID NO: 2)); GAPDH (forward: 5′-[…]-3′(SEQ ID NO: 3), reverse: 5′-[…]-3′(SEQ ID NO: 4)); β-actin (forward: 5′-[…]-3′(SEQ ID NO: 5), reverse: 5′-[…]-3′(SEQ ID NO: 6)). The PCR product was confirmed by electrophoresis in 1.5% agarose gel.

Structure (SMILES): CN(Cc1ccc(S(C)(=O)=O)cc1)C1CCc2nn(-c3ccccn3)c(O)c2C1 (stereo not drawn) [Compound 12, 5-[(4-Methanesulfonylbenzyl)methylamino]-2-(pyridin-2-yl)-4,5,6,7-tetrahydro-2H-indazol-3-ol]
- contraction of the gel induced by TGF-β1 (HFF-1 cells): effectively inhibited
- ROS production induced by PFF (N27 cells): effectively inhibited
- inhibition at 0.5 µM [1]: > 70%

Structure (SMILES): CN(Cc1ccccc1)C1CCc2nn(-c3ccccn3)c(O)c2C1 (stereo not drawn) [Compound 1, 5-(Benzylmethylamino)-2-(pyridin-2-yl)-4,5,6,7-tetrahydro-2H-indazol-3-ol]
- ROS production induced by PMA (NHLF cells): inhibited
- ROS production induced by PMA (LX-2 cells): inhibited
- contraction of the gel induced by TGF-β1 (HFF-1 cells): effectively inhibited
- increase in expression of αSMA induced by TGF-β1 (αSMA; ARPE19 cells): significantly inhibited
- increase in expression of αSMA induced by TGF-β1 (αSMA; KEL-FIB cells): significantly inhibited
- increase in expression of αSMA induced by TGF-β1 (αSMA; LX-2 cells): significantly inhibited
- increase in expression of αSMA induced by TGF-β1 (αSMA; NHLF cells): significantly inhibited
- inhibition at 0.5 µM [1]: > 70%
- IL-8 expressed in P.CAF (IL-8): effectively inhibited
- IL-6 expressed in P.CAF (IL-6): effectively inhibited
- IL-1β induced by LPS (IL-1β): effectively inhibited in a concentration-dependent manner

Structure (SMILES): Oc1c2c(nn1-c1ccccn1)CCC(Nc1ccc(F)c(F)c1)C2 (stereo not drawn) [Compound 32, 5-(3,4-Difluorophenylamino)-2-(pyridin-2-yl)-4,5,6,7-tetrahydro-2H-indazol-3-ol]
- ROS production induced by PFF (N27 cells): effectively inhibited
- inhibition at 0.5 µM [1]: 50 to 70%

Structure (SMILES): OCCOCCN1CCN(C2CCc3nn(-c4ccccn4)c(O)c3C2)CC1 (stereo not drawn) [Compound 17, 5-{4-[2-(2-hydroxyethoxy)-ethyl]-piperazin-1-yl}-2-pyridin-2-yl-4,5,6,7-tetrahydro-2H-indazol-3-ol]
- ROS production induced by PMA (NHLF cells): inhibited
- ROS production induced by PMA (LX-2 cells): inhibited
- inhibition at 0.5 µM [1]: > 70%

Structure (SMILES): CN1CCN(C2CCc3nn(-c4ccc(C(F)(F)F)cn4)c(O)c3C2)CC1 (stereo not drawn) [Compound 82, 5-(4-Methylpiperazin-1-yl)-2-(5-(trifluoromethyl)pyridin-2-yl)-4,5,6,7-tetrahydro-2H-indazol-3-ol]
- ROS production induced by PFF (N27 cells): effectively inhibited
- inhibition at 0.5 µM [1]: 50 to 70%

Structure (SMILES): CN1CCN(C2CCc3nn(-c4ccccn4)c(O)c3C2)CC1 (stereo not drawn) [Compound 16, 5-(4-Methylpiperazin-1-yl)-2-(pyridin-2-yl)-4,5,6,7-tetrahydro-2H-indazol-3-ol]
- contraction of the gel induced by TGF-β1 (HFF-1 cells): effectively inhibited
- ROS production induced by PFF (N27 cells): effectively inhibited
- inhibition at 0.5 µM [1]: > 70%
